Assay [1] deals with T1, noradrenaline (NA) reuptake sites (Rattus norvegicus, UniProt Q63380).
T1 construct: Frontal cortical tissue from the brains of male Sprague-Dawley rats; from tissue; host or cells: rat brain frontal cortex (crude synaptosomes in A3, washed membranes in A6)
The experiment in a line: displacement of [3H]nisoxetine from noradrenaline reuptake sites, frontal cortical membranes. The following applies: 10^-6 M test compound, [3H]nisoxetine 0.6 nM, one test only, read-out: NA uptake (% displacement of specific binding of tritiated ligand). Here is the method:
Frontal cortical tissue from the brains of male Charles River rats weighing 150-250 g was homogenised in ice-cold 50 mM Tris-HCl, pH 7.4 (at 25° C.) containing 120 mM sodium chloride and 5 mM potassium chloride (Tris buffer; 1:60 w/v) using a Kinematic polytron (speed setting 6 for 30 seconds) and centrifuged at 40,000 g for 10 minutes. The supernatant was discarded and the pellet rehomogenised in Tris buffer, 1:60 w/v, and centrifuged at 40,000 g for 10 minutes. This step was repeated twice more so that, in total, the brain tissue was homogenised and centrifuged four times. The final pellet was resuspended in 50 mM Tris-HCl, pH 7.4 containing 300 mM sodium chloride and 5 mM potassium chloride (equivalent to 25 mg wet weight of tissue/ml) and used immediately in the binding assay. All centrifugations were performed at 4° C.
Membranes (400 μl; equivalent to 10 mg wet weight of tissue/tube) were incubated with 50 μl [^3 H]nisoxetine at a single concentration of 0.6 nM and 50 μl of distilled water (total binding) or 50 μl of test compound (10^-6 M) or 50 μl of mazindol (1 μM; non-specific binding) for 4 h at 4° C.
Membrane bound radioactivity was recovered by filtration under vacuum through Skatron 11734 filters using a Skatron cell harvester. Filters were rapidly washed with ice-cold 50 mM Tris-HCl, pH 7.4 containing 120 mM sodium chloride and 5 mM potassium chloride (wash setting 9,9,0) and radioactivity determined by liquid scintillation counting (1 ml Packard MV Gold scintillator).
(§1) For each of these tests measuring the ability of compounds of Formula I to displace standard ligands from dopamine (DA), 5-hydroxytryptamine (5-HT) and noradrenaline (NA) reuptake sites in vitro, the percentage displacement of specific binding of tritiated ligand by 10^-6 M test compound was calculated in the following way:
(§2) Firstly, specific binding of tritiated ligand in the absence (A) and presence (B) of test compound was determined:
(§3) In the absence of compound:
(§4) A (dpm)=Total binding (dpm)-Non-specific binding (dpm)
(§5) In the presence of compound (10^-6 M):
(§6) B (dpm)=Binding at 10^-6 M (dpm)-Non-specific binding (dpm)
(§7) The specific binding of tritiated ligand in the presence (B) of compound was then converted to a percentage of specific binding of tritiated ligand in the absence (A) of compound:
(§8) % Specific binding at 10^-6 M=B (dpm)/A(dpm)×100
(§9) The percentage displacement of specific binding of trtiated ligand by the test compound (10^-6 M) was then obtained by subtraction of the percentage specific binding in the presence of compound from the percentage specific binding in the absence of compound, which is taken as the maximum binding and so equals 100%:
(§10) % Displacement at 10^-6 M=100-% Specific binding at 10^-6 M.
(§11) The values given below in Table 2 for examples 6 to 76 are % displacement of specific binding of tritiated ligand by 10^-6 M test compound and represent results from one test only. IA refers to <50% displacement.

Assay [2] concerns the target T2, 5-hydroxytryptamine (5-HT) reuptake sites (Rattus norvegicus, UniProt P31652).
T2 construct: Frontal cortical tissue from the brains of male Sprague-Dawley rats; from tissue; host or cells: rat brain frontal cortex (crude synaptosomes in A2, washed membranes in A5)
Put plainly: displacement of [3H]paroxetine from 5-HT reuptake sites, frontal cortical membranes. The class given is binding. The following applies: 10^-6 M test compound, [3H]paroxetine 30 pM, one test only, read-out: 5-HT uptake (% displacement of specific binding of tritiated ligand). Here is the method:
Frontal cortical tissue from the brains of male Charles River rats weighing 150-250 g was homogenised in ice-cold 0.25M sucrose (1:30 w/v) using a Kinematic polytron (speed setting 6 for 30 seconds) and centrifuged at 1000 g for 12 minutes. The supernatant was stored on ice and the pellet was resuspended in 0.25M sucrose (1:20 w/v) and centrifuged at 850 g for 10 minutes. Combined supernatants were diluted to 1:100 w/v with ice-cold 50 mM Tris-HCl, pH 7.5 (at 25° C.) containing 120 mM sodium chloride and 5 mM potassium chloride (Tris buffer) and centrifuged at 40,000 g for 10 minutes. The resulting pellet was resuspended in 50 mM Tris buffer (1:100 w/v) and recentrifuged at 40,000 g for 10 minutes. The final pellet was resuspended in 50 mM Tris buffer (equivalent to 2 mg wet weight of tissue/ml) and used immediately in the binding assay. All centrifugations were carried out at 4° C.
Membranes (1000 μl; equivalent to 2 mg wet weight of tissue/tube) were incubated with 200 μl [^3 H]paroxetine at a single concentration of 30 pM and 200 μl of distilled water (total binding) or 200 μl of test compound (10^-6 M) or 200 μl of citalopram (1 μM; non-specific binding) for 2 h at 22° C.
Membrane bound radioactivity was recovered by filtration under vacuum through Whatman GFIC filters using a Brandel cell harvester. Filters were rapidly washed with 16 ml ice-cold 50 mM Tris buffer and radioactivity determined by liquid scintillation counting (2 ml Packard MV Gold scintillator).
as §1, §2, §3, §4, §5, §6, §7, §8, §9, §10, §11
Background: In a radioligand displacement assay an active substance lowers the binding of a labelled ligand.

Assay [3] addresses T3, dopamine (DA) reuptake sites (Rattus norvegicus, UniProt P23977).
T3 construct: Striatal tissue from the brains of male Charles River rats weighing 150-250 g; from tissue; host or cells: rat brain striatum (crude synaptosomes in A1, washed membranes in A4)
The experiment in a line: displacement of [3H]GBR 12935 from dopamine reuptake sites, striatal membranes. In kind it is binding. The note with it: 10^-6 M test compound, [3H]GBR 12935 1 nM, one test only, read-out: DA uptake (% displacement of specific binding of tritiated ligand). As to the method: Striatal tissue from the brains of male Charles River rats weighing 150-250 g was homogenised in ice-cold 0.32M sucrose (1:80 w/v) using a motor driven teflon pestle (12 strokes, 800 rpm) and centrifuged at 1000 g for 12 minutes. The supernatant was stored on ice and the pellet was resuspended in 0.32M sucrose (1:80 w/v) and centrifuged at 850 g for 10 minutes. Combined supernatants were diluted to 1:320 w/v with ice-cold 50 mM Tris-HCl, pH 7.4 (at 25° C.) containing 200 mM sodium chloride and 5 mM potassium chloride (Tris buffer) and centrifuged at 40,000 g for 10 minutes. The resulting pellet was resuspended in 10 ml of 50 mM Tris buffer, incubated at 37° C. for 10 min, diluted in 50 mM Tris buffer (1:320 w/v) and recentrifuged at 40,000 g for 10 minutes. The final pellet was resuspended in 50 mM Tris buffer (equivalent to 1.25 mg wet weight of tissue/ml) and used immediately in the binding assay. All centrifugations were carried out at 4° C.
Membranes (800 μl; equivalent to 1 mg wet weight of tissue/tube) were incubated with 100 μl [^3 H]GBR 12935 at a single concentration of 1 nM and 100 μl of distilled water (total binding) or 100 μl of test compound (10^-6 M) or 100 μl of mazindol (1 μM; non-specific binding) for 90 min at 4° C.
Membrane bound radioactivity was recovered by filtration under vacuum through Whatman GF/C filters, pre-soaked for 1 h in 0.5% polyethylenimine,using a Brandel cell harvester. Filters were rapidly washed with 16 ml of ice-cold 50 mM Tris-HCl, pH 7.4 and radioactivity determined by liquid scintillation counting (2 ml Packard MV Gold scintillator).
as §1, §2, §3, §4, §5, §6, §7, §8, §9, §10, §11

The text below walks through data of patent US6187802A, “Substituted 4-arylmethylene-2-imino-2,3-dihydrothiazoles and derivatives and their pharmaceutical use” (Knoll Aktiengesellschaft, priority 1997, dated 2001).

Each structure is given as a SMILES string. Where a name gives a salt, the structure may show the parent alone.

T1 sequence (Q63380 1-617): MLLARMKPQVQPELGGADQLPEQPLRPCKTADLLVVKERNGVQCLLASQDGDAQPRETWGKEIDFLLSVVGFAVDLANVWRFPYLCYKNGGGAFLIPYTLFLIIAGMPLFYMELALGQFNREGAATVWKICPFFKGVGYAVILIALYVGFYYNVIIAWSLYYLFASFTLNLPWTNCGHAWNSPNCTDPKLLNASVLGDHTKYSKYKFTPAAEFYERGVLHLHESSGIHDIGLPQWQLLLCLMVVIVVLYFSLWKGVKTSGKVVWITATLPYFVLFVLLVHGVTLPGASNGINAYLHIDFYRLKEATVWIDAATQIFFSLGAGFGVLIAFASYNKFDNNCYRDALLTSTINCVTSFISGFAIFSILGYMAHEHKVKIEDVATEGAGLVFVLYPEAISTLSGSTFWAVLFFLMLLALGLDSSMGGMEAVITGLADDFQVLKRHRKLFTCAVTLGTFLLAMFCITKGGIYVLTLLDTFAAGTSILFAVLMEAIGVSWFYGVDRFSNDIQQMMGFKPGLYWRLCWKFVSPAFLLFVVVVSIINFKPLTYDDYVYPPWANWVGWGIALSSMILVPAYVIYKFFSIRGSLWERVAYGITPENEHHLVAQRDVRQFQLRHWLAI
T3 sequence (P23977 whole entry): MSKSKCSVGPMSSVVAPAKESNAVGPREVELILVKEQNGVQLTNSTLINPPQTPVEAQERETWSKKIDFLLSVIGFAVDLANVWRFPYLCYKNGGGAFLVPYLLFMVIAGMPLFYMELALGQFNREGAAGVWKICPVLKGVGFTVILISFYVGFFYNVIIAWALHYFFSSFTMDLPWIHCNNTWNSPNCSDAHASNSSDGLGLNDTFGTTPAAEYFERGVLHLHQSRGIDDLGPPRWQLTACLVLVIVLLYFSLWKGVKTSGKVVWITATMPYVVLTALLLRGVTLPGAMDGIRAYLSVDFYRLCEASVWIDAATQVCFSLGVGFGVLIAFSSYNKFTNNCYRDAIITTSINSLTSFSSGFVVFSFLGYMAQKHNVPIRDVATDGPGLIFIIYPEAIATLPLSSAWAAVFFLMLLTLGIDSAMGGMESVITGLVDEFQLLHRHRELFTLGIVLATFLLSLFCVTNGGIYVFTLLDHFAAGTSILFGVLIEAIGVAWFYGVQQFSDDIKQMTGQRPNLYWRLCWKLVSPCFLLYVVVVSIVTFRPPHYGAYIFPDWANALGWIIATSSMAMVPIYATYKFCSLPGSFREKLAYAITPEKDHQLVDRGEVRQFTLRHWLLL
T2 sequence (P31652 whole entry): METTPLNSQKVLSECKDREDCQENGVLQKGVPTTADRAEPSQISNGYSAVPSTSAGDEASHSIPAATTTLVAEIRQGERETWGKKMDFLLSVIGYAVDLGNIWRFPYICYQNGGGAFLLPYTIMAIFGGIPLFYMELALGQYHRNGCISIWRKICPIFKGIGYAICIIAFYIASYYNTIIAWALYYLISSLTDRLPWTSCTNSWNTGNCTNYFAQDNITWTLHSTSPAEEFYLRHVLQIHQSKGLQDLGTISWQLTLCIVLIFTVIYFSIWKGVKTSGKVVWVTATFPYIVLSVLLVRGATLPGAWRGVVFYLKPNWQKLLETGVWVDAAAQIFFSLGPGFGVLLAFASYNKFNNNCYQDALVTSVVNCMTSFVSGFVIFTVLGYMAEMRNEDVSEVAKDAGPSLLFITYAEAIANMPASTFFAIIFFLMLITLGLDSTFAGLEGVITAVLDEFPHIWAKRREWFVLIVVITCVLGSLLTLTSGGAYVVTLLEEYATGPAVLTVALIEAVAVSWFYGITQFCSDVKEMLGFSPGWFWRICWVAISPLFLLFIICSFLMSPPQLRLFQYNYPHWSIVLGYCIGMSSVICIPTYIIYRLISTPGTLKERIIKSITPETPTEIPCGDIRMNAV

Regarding `CCCCN=c1scc(C(C)(C)c2ccc(Cl)c(Cl)c2)n1CCCC` [Example 63, 3-Butyl-2-butylimino-4-[1-(3,4-dichlorophenyl)-1-methylethyl]-2,3-dihydrothiazole hydrobromide], the inhibition at 1 µM in assay [1] is less than 50%; in assay [2] it was 52%; in assay [3] it was 107%.
As for `COc1ccc(CCN=c2scc(C(C)(C)c3ccc(Cl)c(Cl)c3)n2CCc2ccc(OC)c(OC)c2)cc1OC` [Example 69, 4-[l-(3,4-Dichlorophenyl)-1-methylethyl]-3-(3,4-dimethoxyphenethyl)-2-(3,4-dimethoxyphenethylimino)-2,3-dihydrothiazole hydrobromide], the inhibition at 1 µM was less than 50% in assay [1], less than 50% in assay [2] and 58% in assay [3].
Consider `Clc1ccc(C2(c3csc(=NCc4ccco4)n3Cc3ccco3)CCC2)cc1Cl` [Example 26, 4-[1-(3,4-Dichlorophenyl)cyclobutyl]-3-furfuryl-2-furfurylimino-2,3-dihydrothiazole hydrobromide], for which the inhibition at 1 µM in assay [1] was less than 50%; in assay [2], 92%; in assay [3], 116%.
As for `COc1ccc(CCN=c2scc(C3(c4ccc5ccccc5c4)CCC3)n2CCc2ccc(OC)c(OC)c2)cc1OC` [Example 55, 3-(3,4-Dimethoxyphenethyl)-2-(3,4-dimethoxyphenethylimino)-4-[1-(2-naphthyl)cyclobutyl]-2,3-dihydrothiazole hydrobromide], the inhibition at 1 µM is less than 50% in assay [1], less than 50% in assay [2] and 91% in assay [3].
As to `CCCN=c1scc(C2(c3ccc4ccccc4c3)CCC2)n1CCC` [Example 38, 4-[-(2-Naphthyl)cyclobutyl]-3-propyl-2-propylimino-2,3-dihydrothiazole hydrobromide], the inhibition at 1 µM in assay [1] is 95%; in assay [2], 102%; in assay [3], 111%.
In the case of `CCCCN=c1scc(C2(c3ccc(SC)cc3)CCC2)n1CCCC` [Example 58, 3-Butyl-2-butylimino-4-[1-(4-methylthiophenyl)cyclobutyl]-2,3-dihydrothiazole hydrobromide], the inhibition at 1 µM in assay [1] was less than 50%; in assay [2], less than 50%; in assay [3], 92%.
Turning to `c1ccc(N=c2scc(C3(c4ccc5ccccc5c4)CCC3)n2-c2ccccc2)cc1` [Example 49, 4-[1-(2-Naphthyl)cyclobutyl]-3-phenyl-2-phenylimino-2,3-dihydrothiazole hydrobromide], the inhibition at 1 µM in assay [1] is less than 50%; in assay [2], 56%; in assay [3], 69%.
The corresponding values for `Clc1ccc(C2(c3csc(=NCc4cccnc4)n3Cc3cccnc3)CCC2)cc1Cl` [Example 25, 4-[1-(3,4-Dichlorophenyl)cyclobutyl]-3-(3-pyridylmethyl)-2-(3-pyridylmethylimino)-2,3-dihydrothiazole hydrobromide] are 66%, 95% and 108%.
Regarding `CCN=c1scc(C2(c3ccc4ccccc4c3)CCC2)n1CC` [Example 37, 3-Ethyl-2-ethylimino-4-[1-(2-naphthyl)cyclobutyl]-2,3-dihydrothiazole hydrobromide], the inhibition at 1 µM was determined as 102% in assay [1], 101% in assay [2] and 110% in assay [3].
With `Clc1ccc(C2(C3=C(c4ccccc4)SC4=NCCN43)CCC2)cc1Cl` [Example 9, 3-[1-(3,4-dichlorophenyl)cyclobutyl]-2-phenyl-5,6-dihydroimidazo[2,1-b]thiazole hydrobromide], the inhibition at 1 µM in assay [1] is less than 50%; in assay [2] it was 75%; in assay [3] it was 60%.
As for `CCCCN=c1scc(C2(c3ccc(Cl)cc3)CCC2)n1CCCC` [Example 56, 3-Butyl-2-butylimino-4-[1-(4-chlorophenyl)cyclobutyl]-2,3-dihydrothiazole hydrobromide], the inhibition at 1 µM is less than 50% in assay [1], less than 50% in assay [2] and 93% in assay [3].
